{"source": "patent US20230107216A1", "about": "“PANTETHEINE DERIVATIVES AND USES THEREOF” (Comet Therapeutics, Inc., priority 2018, published 2023)", "system": "primary culture of rat embryo mesencephalic cells (microglia, astrocytes and neurons) exposed to LPS", "experiment": "Neuroprotective effect on damage induced by LPS on culture of mesencephalic neurons (NO, TNF-α, IL-1β, TH positive neurons)", "assay_type": "cell-based", "conditions": "after 5 days of LPS exposure; for inhibition at 50 µM / inhibition at 10 µM: Rattus norvegicus, Neuron, 120 h, read-out: % reversion of TH positive neurons", "outline": "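E15 Wistar rat ventral mesencephalic cultures, day 7, pretreated 1 h with compound (0.1% DMSO) before LPS 10 ng/ml. NO (Griess) at 24 h and 5 days and IL-1β/TNF-α (ELISA) at 24 h, expressed vs LPS control = 100%; TH+ neurons counted by imaging at 5 days, vs non-intoxicated = 100%.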", "note": "Like-named read-outs stand apart in the source and are kept apart here.", "data": [{"smiles": "CC(=O)SCCNC(=O)CCNC(=O)[C@H](O)C(C)(C)COC(=O)[C@@H](N)Cc1ccc(O)c(O)c1", "note": "[Compound 498, (3R)-3-[(2-[[2-(acetylsulfanyl)ethyl]carbamoyl]ethyl)carbamoyl]-3-hydroxy-2,2-dimethylpropyl (2S)-2-amino-3-(3,4-dihydroxyphenyl)propanoate]", "values": [{"measurement": "inhibition at 50 µM", "setting": "50 uM, list at threshold 15%", "result": "≥ 15", "unit": "%"}]}, {"smiles": "CC(C)(CO)[C@@H](O)C(=O)NCCC(=O)NCCSC(CC(=O)OCC[N+](C)(C)C)C(=O)O", "note": "(stereo partly drawn) [Compound 51, [2-([3-carboxy-3-[(2-[3-[(2R)-2,4-dihydroxy-3,3-dimethylbutanamido]propanamido]ethyl)sulfanyl]propanoyl]oxy)ethyl]trimethylazanium]", "values": [{"measurement": "% decrease in NO release relative to LPS alone", "setting": "10 uM", "result": "≥5", "unit": "%"}, {"measurement": "inhibition at 50 µM", "setting": "50 uM, list at threshold 15%", "result": "≥ 15", "unit": "%"}, {"measurement": "inhibition at 50 µM", "setting": "50 uM, list at threshold 50%", "result": "≥ 50", "unit": "%"}]}, {"smiles": "COC(=O)CCC(=O)SCCNC(=O)CCNC(=O)[C@H](O)C(C)(C)COC(C)=O", "note": "[Compound 138]", "values": [{"measurement": "inhibition at 50 µM", "setting": "50 uM, list at threshold 15%", "result": "≥ 15", "unit": "%"}, {"measurement": "inhibition at 50 µM", "setting": "50 uM, list at threshold 50%", "result": "≥ 50", "unit": "%"}]}, {"smiles": "C[C@@H](O)CC(=O)CC(=O)SCCNC(=O)CCNC(=O)[C@H](O)C(C)(C)CO", "note": "[Compound 42, (2R)-2,4-dihydroxy-N-[2-[(2-[[(5R)-5-hydroxy-3-oxohexanoyl]sulfanyl]ethyl)carbamoyl]ethyl]-3,3-dimethylbutanamide]", "values": [{"measurement": "% decrease in NO release relative to LPS alone", "setting": "50 uM", "result": "≥5", "unit": "%"}, {"measurement": "inhibition at 50 µM", "setting": "50 uM, list at threshold 15%", "result": "≥ 15", "unit": "%"}, {"measurement": "inhibition at 50 µM", "setting": "50 uM, list at threshold 50%", "result": "≥ 50", "unit": "%"}]}, {"smiles": "C[C@@H](O)CC(=O)SCCNC(=O)CCNC(=O)[C@H](O)C(C)(C)CO", "note": "[Compound 38, S-2-{3-[(R)-2,4-dihydroxy-3,3-dimethylbutyrylamino]propionylamino} ethyl (R)-3-hydroxybutanethioate]", "values": [{"measurement": "inhibition at 10 µM", "setting": "10 uM, list at threshold 15%", "result": "≥ 15", "unit": "%"}]}, {"smiles": "CC(C)(COC(=O)OCC[N+](C)(C)C)[C@@H](O)C(=O)NCCC(=O)NCCSC(=O)CCC(=O)O", "note": "[Compound 116, [2-([[(3R)-3-[[2-([2-[(3-carboxypropanoyl)sulfanyl]ethyl]carbamoyl)ethyl]carbamoyl]-3-hydroxy-2,2-dimethylpropoxy]carbonyl]oxy)ethyl]trimethylazanium]", "values": [{"measurement": "inhibition at 10 µM", "setting": "10 uM, list at threshold 15%", "result": "≥ 15", "unit": "%"}]}, {"smiles": "COC(=O)CC(C(C)=O)C(=O)SCCNC(=O)CCNC(=O)[C@H](O)C(C)(C)CO", "note": "(stereo partly drawn) [Compound 410]", "values": [{"measurement": "% decrease in NO release relative to LPS alone", "setting": "50 uM", "result": "≥10", "unit": "%"}, {"measurement": "inhibition at 50 µM", "setting": "50 uM, list at threshold 15%", "result": "≥ 15", "unit": "%"}]}, {"smiles": "CC(=O)OCC(C)(C)[C@@H](O)C(=O)NCCC(=O)NCCSC(=O)CC(=O)CCC(=O)O", "note": "[Compound 140, 6-[(2-[3-[(2R)-4-(acetyloxy)-2-hydroxy-3,3-dimethylbutanamido]propanamido]ethyl)sulfanyl]-4,6-dioxohexanoic acid]", "values": [{"measurement": "inhibition at 50 µM", "setting": "50 uM, list at threshold 15%", "result": "≥ 15", "unit": "%"}, {"measurement": "inhibition at 50 µM", "setting": "50 uM, list at threshold 50%", "result": "≥ 50", "unit": "%"}]}]}
